Values of other authors, collected in PMC12649378, “Comparative Pharmacokinetics and Safety of a Micellar Chrysin–Quercetin–Rutin Formulation: A Randomized Crossover Trial” (Antioxidants, 2025).
Where a name gives a salt, the structure may show the parent alone.

Tests used:
[1] = not given; remark: listed apart in the source

SMILES | circulating metabolite concentration exceeding parent chrysin concentrations (in vivo) | aqueous solubility [1] [µg/mL] | weak acidity (pH) [1] | peak plasma levels (humans, 400 mg of unformulated chrysin) [ng/mL]
O=c1cc(-c2ccccc2)oc2cc(OS(=O)(=O)O)cc(O)c12 [chrysin sulfate] | ~ 30 fold | – | – | –
O=c1cc(-c2ccccc2)oc2cc(O)cc(O)c12 [chrysin, 5,7-dihydroxyflavone] | – | < 1 | ≈ 6.7 | 3 to 16
